Measurements: ChEMBL document CHEMBL3885881, “DrugMatrix”

Organism: Rattus norvegicus
Assay: DrugMatrix - Regimen: Daily Repeat
Type: toxicity, organism-based, Sprague-Dawley
Design: regimen Daily Repeat, gender Male, age 6-8 weeks
Details: in vivo, po, route oral GAVAGE, vehicle 100 % WATER; for ABSOLUTE BASOPHIL / ABSOLUTE EOSINOPHIL / ABSOLUTE LYMPHOCYTE / ABSOLUTE MONOCYTE / ABSOLUTE SEGMENTED NEUTROPHIL / BASOPHIL / EOSINOPHIL / ERYTHROCYTE COUNT / HEMATOCRIT / HEMOGLOBIN / LEUKOCYTE COUNT / LYMPHOCYTE / MEAN CORPUSCULAR HEMOGLOBIN / MEAN CORPUSCULAR HEMOGLOBIN CONCENTRATION / MEAN CORPUSCULAR VOLUME / MONOCYTE / NEUTROPHIL / NUCLEATED RED BLOOD CELLS / PLATELET COUNT: tissue Blood; for ALANINE AMINOTRANSFERASE / ALBUMIN / ALKALINE PHOSPHATASE / ASPARTATE AMINOTRANSFERASE / BLOOD UREA NITROGEN / CARBON DIOXIDE / CHLORIDE / CHOLESTEROL / CREATINE PHOSPHOKINASE / CREATININE / GLUCOSE / LACTATE DEHYDROGENASE / LIPASE / PHOSPHORUS / POTASSIUM / SODIUM / TOTAL BILIRUBIN / TOTAL PROTEIN / URIC ACID: tissue Plasma
[1] = 0 mg/kg, 72 h, dose level Control, time 3 day
[2] = 0 mg/kg, 120 h, dose level Control, time 5 day
[3] = 60 mg/kg, 72 h, dose level Low, time 3 day
[4] = 60 mg/kg, 120 h, dose level Low, time 5 day

CC(CCc1ccccc1)NCC(O)c1ccc(O)c(C(N)=O)c1 (configuration not stated) [LABETALOL]
ABSOLUTE BASOPHIL [1]: 0 CELLS/uL | ABSOLUTE EOSINOPHIL [1]: 168.33 CELLS/uL | ABSOLUTE LYMPHOCYTE [1]: 13654.17 CELLS/uL | ABSOLUTE MONOCYTE [1]: 121 CELLS/uL | ABSOLUTE SEGMENTED NEUTROPHIL [1]: 1223.17 CELLS/uL | BASOPHIL [1]: 0% | EOSINOPHIL [1]: 1.17% | ERYTHROCYTE COUNT [1]: 5.7 x10E6/uL | HEMATOCRIT [1]: 35.33% | HEMOGLOBIN [1]: 13.97 G/DL | LEUKOCYTE COUNT [1]: 15.17 x10E3/uL | LYMPHOCYTE [1]: 89.83% | MEAN CORPUSCULAR HEMOGLOBIN [1]: 24.53 pg | MEAN CORPUSCULAR HEMOGLOBIN CONCENTRATION [1]: 39.53 G/DL | MEAN CORPUSCULAR VOLUME [1]: 62.05 fL | MONOCYTE [1]: 0.83% | NEUTROPHIL [1]: 8.17% | NUCLEATED RED BLOOD CELLS [1]: 0 /100WBC | PLATELET COUNT [1]: 1312.17 x10E3/uL | ALANINE AMINOTRANSFERASE [1]: 50.83 u/L | ALBUMIN [1]: 4.18 G/DL | ALKALINE PHOSPHATASE [1]: 334.17 u/L | ASPARTATE AMINOTRANSFERASE [1]: 82.17 u/L | BLOOD UREA NITROGEN [1]: 15.5 mg/dL | CARBON DIOXIDE [1]: 31.33 mmol/L | CHLORIDE [1]: 99.83 MEQ/L | CHOLESTEROL [1]: 76 mg/dL | CREATINE PHOSPHOKINASE [1]: 272.17 u/L | CREATININE [1]: 0.17 mg/dL | GLUCOSE [1]: 143 mg/dL | LACTATE DEHYDROGENASE [1]: 157.5 u/L | LIPASE [1]: 9.33 u/L | PHOSPHORUS [1]: 12.18 mg/dL | POTASSIUM [1]: 6.78 MEQ/L | SODIUM [1]: 143.9 MEQ/L | TOTAL BILIRUBIN [1]: 0.22 mg/dL | TOTAL PROTEIN [1]: 5.85 G/DL | URIC ACID [1]: 1.7 mg/dL | ABSOLUTE BASOPHIL [2]: 0 CELLS/uL | ABSOLUTE EOSINOPHIL [2]: 0 CELLS/uL | ABSOLUTE LYMPHOCYTE [2]: 13539.33 CELLS/uL | ABSOLUTE MONOCYTE [2]: 177.67 CELLS/uL | ABSOLUTE SEGMENTED NEUTROPHIL [2]: 2116.33 CELLS/uL | BASOPHIL [2]: 0% | EOSINOPHIL [2]: 0% | ERYTHROCYTE COUNT [2]: 5.78 x10E6/uL | HEMATOCRIT [2]: 36.13% | HEMOGLOBIN [2]: 14.1 G/DL | LEUKOCYTE COUNT [2]: 15.83 x10E3/uL | LYMPHOCYTE [2]: 85.83% | MEAN CORPUSCULAR HEMOGLOBIN [2]: 24.42 pg | MEAN CORPUSCULAR HEMOGLOBIN CONCENTRATION [2]: 39 G/DL | MEAN CORPUSCULAR VOLUME [2]: 62.55 fL | MONOCYTE [2]: 0.83% | NEUTROPHIL [2]: 13.33% | NUCLEATED RED BLOOD CELLS [2]: 0.17 /100WBC | PLATELET COUNT [2]: 1281.17 x10E3/uL | ALANINE AMINOTRANSFERASE [2]: 55.5 u/L | ALBUMIN [2]: 4.22 G/DL | ALKALINE PHOSPHATASE [2]: 345 u/L | ASPARTATE AMINOTRANSFERASE [2]: 92.5 u/L | BLOOD UREA NITROGEN [2]: 16.5 mg/dL | CARBON DIOXIDE [2]: 26.5 mmol/L | CHLORIDE [2]: 103.5 MEQ/L | CHOLESTEROL [2]: 78.5 mg/dL | CREATINE PHOSPHOKINASE [2]: 381.5 u/L | CREATININE [2]: 0.21 mg/dL | GLUCOSE [2]: 161.83 mg/dL | LACTATE DEHYDROGENASE [2]: 487.5 u/L | LIPASE [2]: 10.17 u/L | PHOSPHORUS [2]: 11.83 mg/dL | POTASSIUM [2]: 6.4 MEQ/L | SODIUM [2]: 146.95 MEQ/L | TOTAL BILIRUBIN [2]: 0.22 mg/dL | TOTAL PROTEIN [2]: 6.22 G/DL | URIC ACID [2]: 1.83 mg/dL | ABSOLUTE BASOPHIL [3]: 0 CELLS/uL | ABSOLUTE EOSINOPHIL [3]: 201.33 CELLS/uL | ABSOLUTE LYMPHOCYTE [3]: 14909.33 CELLS/uL | ABSOLUTE MONOCYTE [3]: 67 CELLS/uL | ABSOLUTE SEGMENTED NEUTROPHIL [3]: 1589 CELLS/uL | BASOPHIL [3]: 0% | EOSINOPHIL [3]: 1.33% | ERYTHROCYTE COUNT [3]: 5.26 x10E6/uL | HEMATOCRIT [3]: 33.47% | HEMOGLOBIN [3]: 13 G/DL | LEUKOCYTE COUNT [3]: 16.77 x10E3/uL | LYMPHOCYTE [3]: 89.33% | MEAN CORPUSCULAR HEMOGLOBIN [3]: 24.77 pg | MEAN CORPUSCULAR HEMOGLOBIN CONCENTRATION [3]: 38.9 G/DL | MEAN CORPUSCULAR VOLUME [3]: 63.63 fL | MONOCYTE [3]: 0.33% | NEUTROPHIL [3]: 9% | NUCLEATED RED BLOOD CELLS [3]: 0 /100WBC | PLATELET COUNT [3]: 1299.67 x10E3/uL | ALANINE AMINOTRANSFERASE [3]: 51.67 u/L | ALBUMIN [3]: 4.23 G/DL | ALKALINE PHOSPHATASE [3]: 301.67 u/L | ASPARTATE AMINOTRANSFERASE [3]: 83.67 u/L | BLOOD UREA NITROGEN [3]: 14.33 mg/dL | CARBON DIOXIDE [3]: 31.67 mmol/L | CHLORIDE [3]: 98.67 MEQ/L | CHOLESTEROL [3]: 81.33 mg/dL | CREATINE PHOSPHOKINASE [3]: 278 u/L | CREATININE [3]: 0.27 mg/dL | GLUCOSE [3]: 142.33 mg/dL | LACTATE DEHYDROGENASE [3]: 160 u/L | LIPASE [3]: 9.33 u/L | PHOSPHORUS [3]: 12.9 mg/dL | POTASSIUM [3]: 6.47 MEQ/L | SODIUM [3]: 145.3 MEQ/L | TOTAL BILIRUBIN [3]: 0.2 mg/dL | TOTAL PROTEIN [3]: 5.97 G/DL | URIC ACID [3]: 1.7 mg/dL | ABSOLUTE BASOPHIL [4]: 0 CELLS/uL | ABSOLUTE EOSINOPHIL [4]: 0 CELLS/uL | ABSOLUTE LYMPHOCYTE [4]: 14854.33 CELLS/uL | ABSOLUTE MONOCYTE [4]: 209.33 CELLS/uL | ABSOLUTE SEGMENTED NEUTROPHIL [4]: 1369.67 CELLS/uL | BASOPHIL [4]: 0% | EOSINOPHIL [4]: 0% | ERYTHROCYTE COUNT [4]: 5.65 x10E6/uL | HEMATOCRIT [4]: 34.93% | HEMOGLOBIN [4]: 13.63 G/DL | LEUKOCYTE COUNT [4]: 16.43 x10E3/uL | LYMPHOCYTE [4]: 90.33% | MEAN CORPUSCULAR HEMOGLOBIN [4]: 24.17 pg | MEAN CORPUSCULAR HEMOGLOBIN CONCENTRATION [4]: 39.03 G/DL | MEAN CORPUSCULAR VOLUME [4]: 61.87 fL | MONOCYTE [4]: 1.33% | NEUTROPHIL [4]: 8.33% | NUCLEATED RED BLOOD CELLS [4]: 0 /100WBC | PLATELET COUNT [4]: 1103 x10E3/uL | ALANINE AMINOTRANSFERASE [4]: 59 u/L | ALBUMIN [4]: 4.03 G/DL | ALKALINE PHOSPHATASE [4]: 331.33 u/L | ASPARTATE AMINOTRANSFERASE [4]: 90.67 u/L | BLOOD UREA NITROGEN [4]: 16.67 mg/dL | CARBON DIOXIDE [4]: 27.33 mmol/L | CHLORIDE [4]: 100.67 MEQ/L | CHOLESTEROL [4]: 96.67 mg/dL | CREATINE PHOSPHOKINASE [4]: 354.33 u/L | CREATININE [4]: 0.23 mg/dL | GLUCOSE [4]: 144 mg/dL | LACTATE DEHYDROGENASE [4]: 305.33 u/L | LIPASE [4]: 9.33 u/L | PHOSPHORUS [4]: 12.57 mg/dL | POTASSIUM [4]: 6.21 MEQ/L | SODIUM [4]: 143.47 MEQ/L | TOTAL BILIRUBIN [4]: 0.23 mg/dL | TOTAL PROTEIN [4]: 5.93 G/DL | URIC ACID [4]: 1.53 mg/dL
